Reference: the supplement of paper PMC10949913
Values joined by “and” are separate entries in the source; they are usually repeats but may differ in a detail not shown here. Equal values may be shown once.

Key:
Settings in all cases: 48 h
[1] = tested on: CU-ACC1; test: area under concentration-response curve (viability) (AUC (a.u.)); higher = less active
Summary of the method: (§1)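 Three adrenocortical carcinoma cell lines were seeded at 500–1,000 cells/well in 5 µL medium in 1,536-well plates. 23 nL of each MIPE 5.0 library compound was added at 11 concentrations. After 48 h (per the protocol name), CellTiter-Glo was added for 15 minutes at room temperature and luminescence was read. Signals were normalised per plate to vehicle and empty-well controls. AC50 and area under the curve came from fitted concentration-response curves, keeping only inhibitory or non-responding curve classes.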

[2] = tested on: CU-ACC2; test: as above
Summary of the method: as §1

[3] = tested on: CU-ACC1; test: AC50 viability; higher = less potent
Summary of the method: as §1

[4] = tested on: CU-ACC2; test: AC50 viability; higher = less potent
Summary of the method: as §1

[5] = tested on: NCI-H295R; test: area under concentration-response curve (viability) (AUC (a.u.)); higher = less active
Summary of the method: as §1

For `C/C=C/C/C=C/CCC(=O)[C@H]1O[C@H]1C(N)=O`, the “area under concentration-response curve” value [1] was 474, the “area under concentration-response curve” value [2] was 554 and the AC50 viability [3] was 20.9 µM. The AC50 viability [4] was 23.5 µM.

With `CC(=O)Nc1ccc(C(=O)NC(C)(C)C)cc1` the “area under concentration-response curve” value [1] was 331, the “area under concentration-response curve” value [5] was 284 and the “area under concentration-response curve” value [2] was 247. For the same compound, the AC50 viability [3] was 5.25 µM and the AC50 viability [4] was 0.295 µM.

For `C[S+]([O-])c1ccc(-c2nc(-c3ccc(F)cc3)c(-c3ccncc3)[nH]2)cc1` (stereo not drawn), the “area under concentration-response curve” value [1] was 393, the “area under concentration-response curve” value [2] was 420 and the AC50 viability [3] was 18.6 µM. The AC50 viability [4] was 16.6 µM.

In the case of `COC1=CC=C2Nc3cc(Cl)ccc3C(N=C3C=C(CN4CCCC4)C(=O)C(CN4CCCC4)=C3)=C2N1`, the “area under concentration-response curve” value [1] is reported as 477, the “area under concentration-response curve” value [2] is reported as 528 and the AC50 viability [3] is reported as 18.6 µM. For the same compound, the AC50 viability [4] was 23.5 µM.

`COc1cc2c(cc1OC(C)C)[C@H](c1ccc(Cl)cc1)N(c1ccc(N(C)C[C@H]3CC[C@H](N4CCN(C)C(=O)C4)CC3)cc1)C(=O)C2` was tested, and the “area under concentration-response curve” value [1] was 427, the “area under concentration-response curve” value [2] was 510 and the AC50 viability [3] was 16.6 µM. It also gave an AC50 viability [4] of 20.9 µM.

In the case of `COc1ncc(Nc2ncc(C(C)N3CCN([S+](C)(=O)[O-])CC3)cc2-c2nc(C)nc(N)n2)cc1F` (stereo not drawn), the “area under concentration-response curve” value [1] is reported as 226, the “area under concentration-response curve” value [5] is reported as 179 and the “area under concentration-response curve” value [2] is reported as 258. The AC50 viability [3] was 0.00263 µM and the AC50 viability [4] was 0.0934 µM.

`CCCNCC(O)COc1ccccc1C(=O)CCc1ccccc1` (stereo not drawn) was tested, and the “area under concentration-response curve” value [1] was 417, the “area under concentration-response curve” value [2] was 451 and the AC50 viability [3] was 23.5 µM. It also gave an AC50 viability [4] of 23.5 µM.

`CC(C)(C)C[C@H]1N[C@@H](C(=O)N[C@H]2CC[C@H](O)CC2)[C@H](c2cccc(Cl)c2F)[C@@]12C(=O)Nc1cc(Cl)ccc12` was tested, and the “area under concentration-response curve” value [1] was 473, the “area under concentration-response curve” value [2] was 461 and the AC50 viability [3] was 1.48 µM. The AC50 viability [4] was 23.5 µM.

For `CN[C@@H](C)C(=O)N[C@H]1CCCC[C@H]2CC[C@@H](C(=O)N[C@@H](c3ccccc3)c3cn(CCCCc4ccc(CCCCn5cc([C@@H](NC(=O)[C@@H]6CC[C@@H]7CCCC[C@H](NC(=O)[C@H](C)NC)C(=O)N76)c6ccccc6)nn5)cc4)nn3)N2C1=O`, the “area under concentration-response curve” value [1] was 260, the “area under concentration-response curve” value [2] was 303 and the AC50 viability [3] was 0.166 µM. It also gave an AC50 viability [4] of 0.332 µM.

In the case of `Cc1cc2c(C(C)C)c(O)c(O)c(C=O)c2c(O)c1-c1c(C)cc2c(C(C)C)c(O)c(O)c(C=O)c2c1O`, the “area under concentration-response curve” value [1] is reported as 529, the “area under concentration-response curve” value [2] is reported as 596 and the AC50 viability [3] is reported as 26.3 µM. For the same compound, the AC50 viability [4] was 23.5 µM.

In the case of `O=C(c1ccc(Nc2nc(C3CC3)cn3c(-c4cn[nH]c4)cnc23)c(F)c1)N1CCOCC1`, the “area under concentration-response curve” value [1] is reported as 366, the “area under concentration-response curve” value [2] is reported as 343 and the AC50 viability [3] is reported as 3.32 µM. For the same compound, the AC50 viability [4] was 14.8 µM.

With `Cc1c[nH]c2ncnc(N3CCC(CN)(C(=O)Nc4cccc(OC(=O)N(C)C)c4)CC3)c12` the “area under concentration-response curve” value [1] was 427 and 309, the “area under concentration-response curve” value [5] was 518 and 295 and the “area under concentration-response curve” value [2] was 512. For the same compound, the AC50 viability [3] was 10.5 µM and the AC50 viability [4] was 18.6 µM.

With `COc1ccc(CNc2nc(N(CCO)CCO)nc3c2ncn3C(C)C)cc1` the “area under concentration-response curve” value [1] was 438, the “area under concentration-response curve” value [2] was 502 and the AC50 viability [3] was 14.8 µM. The AC50 viability [4] was 7.42 µM.

With `C[C@]12Cc3cn[nH]c3C[C@@H]1CC[C@@H]1[C@@H]2CC[C@@]2(C)[C@H]1CC[C@]2(C)O` the “area under concentration-response curve” value [1] was 335, the “area under concentration-response curve” value [5] was 312 and the “area under concentration-response curve” value [2] was 214. It also gave an AC50 viability [3] of 0.0132 µM and an AC50 viability [4] of 0.263 µM.

With `Oc1ccc2ccccc2c1SSc1c(O)ccc2ccccc12` the “area under concentration-response curve” value [1] was 487, the “area under concentration-response curve” value [2] was 583 and the AC50 viability [3] was 41.7 µM. It also gave an AC50 viability [4] of 23.5 µM.

For `CN[C@@H]1CN(C[C@H]1OC)C2=NC3=C(C=C2)C(=O)C(=C\N3C4=NC=CS4)/C(O)=O`, the “area under concentration-response curve” value [1] was 475, the “area under concentration-response curve” value [5] was 445 and the “area under concentration-response curve” value [2] was 474. It also gave an AC50 viability [3] of 10.2 µM and an AC50 viability [4] of 4.56 µM.

For `CN(C)C1CCN(C(=O)c2ccc(NC(=O)Nc3nc(N4CCOCC4)nc(N4CCOCC4)n3)cc2)CC1`, the “area under concentration-response curve” value [1] was 393, the “area under concentration-response curve” value [5] was 464 and the “area under concentration-response curve” value [2] was 458. For the same compound, the AC50 viability [3] was 3.32 µM and the AC50 viability [4] was 1.86 µM.

`Oc1cc(-c2nc(-c3ccccc3)[nH]c2-c2ccncc2)ccc1Cl` was tested, and the “area under concentration-response curve” value [1] was 464, the “area under concentration-response curve” value [5] was 522 and the “area under concentration-response curve” value [2] was 514. The AC50 viability [3] was 20.9 µM and the AC50 viability [4] was 16.6 µM.

`COc1cccc([C@@H](C)NCCCc2ccccc2Cl)c1` was tested, and the “area under concentration-response curve” value [1] was 462, the “area under concentration-response curve” value [2] was 584 and the AC50 viability [3] was 20.9 µM. It also gave an AC50 viability [4] of 23.5 µM.

With `Cc1cc(Nc2nc(N[C@@H](C)c3ccc(F)cc3)c(C#N)cc2F)n[nH]1` the “area under concentration-response curve” value [1] was 516, the “area under concentration-response curve” value [2] was 467 and the AC50 viability [3] was 18.6 µM. The AC50 viability [4] was 20.9 µM.

`C[C@@H](O)[C@@H](C)Oc1nc(Nc2ccc([S+](=N)([O-])C3CC3)cc2)ncc1C(F)(F)F` (stereo partly drawn) was tested, and the “area under concentration-response curve” value [1] was 476, the “area under concentration-response curve” value [2] was 567 and the AC50 viability [3] was 23.5 µM. For the same compound, the AC50 viability [4] was 26.3 µM.

`CC(C)(C)C(=O)OCOP(=O)(COCCn1cnc2c(N)ncnc21)OCOC(=O)C(C)(C)C` was tested, and the “area under concentration-response curve” value [1] was 456, the “area under concentration-response curve” value [2] was 527 and the AC50 viability [3] was 8.33 µM. For the same compound, the AC50 viability [4] was 7.42 µM.

For `O=C(CC12CC3CC(CC(C3)C1)C2)Nc1cccc2nc(NCCNCCO)ccc12`, the “area under concentration-response curve” value [1] was 473, the “area under concentration-response curve” value [2] was 537 and the AC50 viability [3] was 26.3 µM. For the same compound, the AC50 viability [4] was 23.5 µM.

For `COc1cc(F)c(F)c(Nc2ccc(I)cc2F)c1N[S+](=O)([O-])C1(C[C@H](O)CO)CC1`, the “area under concentration-response curve” value [1] was 421, the “area under concentration-response curve” value [2] was 476 and the AC50 viability [3] was 16.6 µM. For the same compound, the AC50 viability [4] was 6.61 µM.
